We go through 39 molecules from US8088806B2 (Achillion Pharmaceuticals, Inc., priority 2005, dated 2012).

The subject of one assay is HCV replicon. The experiment in a line: Replicon based assay of HCV replication inhibition (NPT ELISA). Format: cell-based, Hepatitis C virus. The following applies: Hepatitis C virus, Huh-7, 72 h, Table I; Huh-7 HCV replicon-containing cells, three days; read-out: Activity. In outline: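 NPT (neomycin phosphotransferase) content, proportional to replicon replication, quantified by capture ELISA on day four. Before that, replicon-bearing Huh-7 cells in G418-free screening medium were exposed three days at 37° C to compound, typically six doses from 10 to 0.03 micromolar, with equal DMSO across wells.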
(In general: A replicon is a self-replicating genome or part of one, used to study replication in cells.)
With `CCCCCOc1ccc(Nc2nc(-c3cc(C(=O)OCC)no3)cs2)cn1` [compound 180, ethyl 5-(2-(6-(pentyloxy)pyridin-3-ylamino)thiazol-4-yl)isoxazole-3-carboxylate], the EC50 is above 10000 nM.

In the case of `c1ccc(Oc2ccc(CCNc3nc(-c4cccnc4)cs3)cc2)cc1` [compound 84, N-(4-phenoxyphenethyl)-4-(pyridin-3-yl)thiazol-2-amine], the EC50 is above 10000 nM.

As to `CCCCCCCOc1ccc(Nc2nc(-c3cccnc3)cs2)cc1` [compound 92, N-(4-(heptyloxy)phenyl)-4-(pyridin-3-yl)thiazol-2-amine], the EC50 was below 1000 nM.

Regarding `CCCCCOc1ccc(Nc2nc(CN3CCOCC3)cs2)cc1C(F)(F)F` [compound 171, N-(3-(trifluoromethyl)-4-(pentyloxy)phenyl)-4-(morpholinomethyl)thiazol-2-amine], the EC50 was below 1000 nM.

Take `CC(C)N(c1ccccc1)c1ccc(Nc2nc(-c3cccnc3)cs2)cc1` [compound 106, N1-isopropyl-N1-phenyl-N4-(4-(pyridin-3-yl)thiazol-2-yl)benzene-1,4-diamine]: the EC50 was above 10000 nM.

For `CCCCCOc1ccc(Nc2nc(-c3ccccc3Cl)cs2)cn1` [compound 181, N-(4-(2-chlorophenyl)thiazol-2-yl)-6-(pentyloxy)pyridin-3-amine], the EC50 is below 1000 nM.

Turning to `N#Cc1cccc(Nc2nc(-c3ccc(F)cc3F)cs2)c1` [compound 57, 3-(4-(2,4-difluorophenyl)thiazol-2-ylamino)benzonitrile], the EC50 was above 10000 nM.

On to `CCCCCOc1ccc(Nc2nc(-c3ccc(C)nc3)cs2)cc1C(F)(F)F` [compound 154, N-(3-(trifluoromethyl)-4-(pentyloxy)phenyl)-4-(6-methylpyridin-3-yl)thiazol-2-amine], for which the EC50 is below 1000 nM.

Still in this assay, the particulars now being: Hepatitis C virus, Huh-7, 72 h, Table III; Huh-7 HCV replicon-containing cells, three days; read-out: Activity.
With `CCCCCCCCc1ccc(Nc2nc(-c3ccc4c(c3)NC(=O)CO4)cs2)cc1` [compound 548, 6-(2-(4-octylphenylamino)thiazol-4-yl)-2H-benzo[b][1,4]oxazin-3(4H)-one], the EC50 is below 1000 nM.

`CCCCCCCCOc1ccc(Nc2nc(-c3cncc(OC)c3)cs2)cc1C(F)(F)F` [compound 656, N-(3-(trifluoromethyl)-4-(octyloxy)phenyl)-4-(5-methoxypyridin-3-yl)thiazol-2-amine]: the EC50 was in the range of 1000 to 10000 nM.

Take `CCCCCCCCN(C)c1ccc(Nc2nc(Cc3ccc(F)c(F)c3)cs2)cc1` [compound 612, N^1-(4-(3,4-difluorobenzyl)thiazol-2-yl)-N^4-methyl-N^4-octylbenzene-1,4-diamine]: the EC50 is above 10000 nM.

Turning to `CCCC(CCC)Oc1ccc(Nc2nc(-c3cccnc3)cs2)cc1C(F)(F)F` [compound 680, N-(3-(trifluoromethyl)-4-(heptan-4-yloxy)phenyl)-4-(pyridin-3-yl)thiazol-2-amine], the EC50 is below 1000 nM.

Turning to `CCCC(CCC)Oc1ccc(Nc2nc(-c3cnccn3)cs2)cc1C(F)(F)F` [compound 597, N-(3-(trifluoromethyl)-4-(heptan-4-yloxy)phenyl)-4-(pyrazin-2-yl)thiazol-2-amine], the EC50 was below 1000 nM.

With `CCCCCCCCOc1ccc(Nc2nc(Cc3ccc(Cl)cc3)cs2)cc1C(F)(F)F` [compound 635, 4-(4-chlorobenzyl)-N-(3-(trifluoromethyl)-4-(octyloxy)phenyl)thiazol-2-amine], the EC50 was 1000 to 10000 nM.

The same assay, now with this note: Hepatitis C virus, replicon based assay of HCV replication inhibition; Table II; read-out: Activity.
Turning to `CCCCCOc1ccc(Nc2nc(-c3ccc(C(=O)NC)nc3)cs2)cc1C(F)(F)F` [compound 259, N-methyl-5-(2-(4-(pentyloxy)-3-(trifluoromethyl)phenyl-amino)thiazol-4-yl)picolinamide], the EC50 was below 1000 nM.

`CC/C=C\CCCCOc1ccc(Nc2nc(-c3ccc(C)nc3)cs2)cc1C(F)(F)F` [compound 481, N-(4-((Z)-oct-5-enyloxy)-3-(trifluoromethyl)phenyl)-4-(6-methylpyridin-3-yl)thiazol-2-amine]: the EC50 is below 1000 nM.

As for `FC(F)(F)c1cc(Nc2nc(-c3cccnc3)cs2)ccc1OCC1CC1` [compound 240, N-(4-(cyclopropylmethoxy)-3-(trifluoromeethyl)phenyl)-4-(pyridin-3-yl)thiazol-2-amine], the EC50 was below 1000 nM.

Take `CCCCCOc1ccc(Nc2nc(-c3cccc(C(=O)O)c3)cs2)cc1C(F)(F)F` [compound 408, 3-(2-(3-(trifluoromethyl)-4-(pentyloxy)phenylamino)thia-zol-4-yl)benzoic acid]: the EC50 was below 1000 nM.

Consider `CCOC(=O)c1ccc(Nc2nc(-c3ccc(F)cc3)c(C)s2)cc1` [compound 347, ethyl 4-(4-(4-fluorophenyl)-5-mthylthiazol-2-ylamino)benzoate], for which the EC50 is above 10000 nM.

`CCCCCCCCOc1ccc(Nc2nc(-c3ccc(-c4ccccn4)s3)cs2)cc1` [compound 387, N-(4-(octyloxy)phenyl)-4-(5-(pyridin-2-yl)thiophen-2-yl)thiazol-2-amine]: the EC50 is below 1000 nM.

As to `CCCCCCCCOc1ccc(Nc2nc(-c3ccc(O)c(C(N)=O)c3)cs2)cc1` [compound 449, 5-(2-(4-(octyloxy)phenylamino)thia-zol-4-yl)-2-hydroxybenzamide], the EC50 is below 1000 nM.

Regarding `CCCCCCCCOc1ccc(Nc2nc(-c3ccccn3)cs2)cc1` [compound 385, N-(4-(octyloxy)phenyl)-4-(pyridin-2-yl)thiazol-2-amine], the EC50 was below 1000 nM.

For the molecule `CCCCCOc1ccc(Nc2nc(CN3CCC[C@H]3C(=O)O)cs2)cc1C(F)(F)F` [compound 268, (S)-1-((2-(4-(pentyloxy)-3-(trifluoromethyl)phenyl-amino)thiazol-4-yl)methyl)pyrrolidine-2-carboxylic acid], the EC50 was below 1000 nM.

Regarding `CCCCCCCCOc1ccc(Nc2nc(-c3ccc(OCC(=O)O)cc3)cs2)cc1` [compound 462, 2-(4-(2-(4-(octyloxy)phenylamino)thia-zol-4-yl)phenoxy)acetic acid], the EC50 was below 1000 nM.

Consider `CCCCCCCOc1ccc(Nc2nc(-c3c[nH]c4ccccc34)cs2)cc1` [compound 398, N-(4-(heptyloxy)phenyl)-4-(1H-indol-3-yl)thiazol-2-amine], for which the EC50 was below 1000 nM.

Take `NC(=O)c1cc(-c2csc(Nc3ccc(OCC4CC4)c(C(F)(F)F)c3)n2)ccc1O` [compound 256, 5-(2-(4-(cyclopropylmethoxy)-3-(trifluoromethyl)phenyl-amino)thiazol-4-yl)-2-hydroxybenzamide]: the EC50 was below 1000 nM.

The assay is the same for the next values; noted with them: Hepatitis C virus, replicon based assay of HCV replication inhibition; Table IV; read-out: Activity.
With `FC(F)(F)c1ccc(-c2csc(Nc3ccc(OCC4CCCCC4)c(C(F)(F)F)c3)n2)nc1` [compound 766, N-(4-(cyclohexylmethoxy)-3-(trifluoromethyl)phenyl)-4-(5-(trifluoromethyl)pyridin-2-yl)thiazol-2-amine], the EC50 was below 1000 nM.

In the case of `CCCCCCCCOc1ccc(Nc2nc(-c3cccn3C)cs2)cc1C(F)(F)F` [compound 783, N-(3-(trifluoromethyl)-4-(octyloxy)phenyl)-4-(1-methyl-1H-pyrrol-2-yl)thiazol-2-amine], the EC50 is below 1000 nM.

As for `c1ccc(CCc2ccc(Nc3nc(-c4cccnc4)cs3)cc2)cc1` [compound 757, N-(4-phenethylphenyl)-4-(pyridin-3-yl)thiazol-2-amine], the EC50 is below 1000 nM.

In the case of `FC(F)(F)c1cc(Nc2nc(-c3cccnc3)cs2)ccc1OCCCc1ccco1` [compound 860, N-(4-(3-(furan-2-yl)propoxy)-3-(trifluoromethyl)phenyl)-4-(pyridin-3-yl)thiazol-2-amine], the EC50 is below 1000 nM.

For `CC(=O)Nc1ccc(Nc2nc(-c3cccnc3)cs2)cc1` [compound 878, N-(4-(4-(pyridin-3-yl)thiazol-2-ylamino)phenyl)acetamide], the EC50 is above 10000 nM.

`COc1ccc(Nc2nc(-c3cccnc3)cs2)cc1OC1CCCC1` [compound 741, N-(3-(cyclopentyloxy)-4-methoxyphenyl)-4-(pyridin-3-yl)thiazol-2-amine]: the EC50 fell in the range of 1000 to 10000 nM.

In the case of `CCCCCCCCOc1ccc(Nc2nc(-c3cccnc3)c(C#N)s2)cc1C(F)(F)F` [compound 913, 2-(3-(trifluoromethyl)-4-(octyloxy)phenylamino)-4-(pyridin-3-yl)thiazole-5-carbonitrile], the EC50 was in the range of 1000 to 10000 nM.

For `C#CCCOc1ccc(Nc2nc(-c3cccnc3)cs2)cc1C(F)(F)F` [compound 937, N-(4-(but-3-ynyloxy)-3-(trifluoromethyl)phenyl)-4-(pyridin-3-yl)thiazol-2-amine], the EC50 is below 1000 nM.

With `Cc1ccc(CCCCOc2ccc(Nc3nc(-c4ccc(CC(=O)O)s4)cs3)cc2C(F)(F)F)cc1` [compound 851, 2-(5-(2-(4-(4-p-tolylbutoxy)-3-(trifluoromethyl)phenylamino)thiazol-4-yl)thiophen-2-yl)acetic acid], the EC50 is below 1000 nM.

For `COc1cccc(-c2csc(Nc3ccc(OCC4CCCCC4)c(C(F)(F)F)c3)n2)n1` [compound 772, N-(4-(cyclohexylmethoxy)-3-(trifluoromethyl)phenyl)-4-(6-methoxypyridin-2-yl)thiazol-2-amine], the EC50 was below 1000 nM.

Take `O=C(O)Cc1ccc(-c2csc(Nc3ccc(OCCCC4CCCC4)c(C(F)(F)F)c3)n2)s1` [compound 850, 2-(5-(2-(4-(3-cyclopentylpropoxy)-3-(trifluoromethyl)phenylamino)thiazol-4-yl)thiophen-2-yl)acetic acid]: the EC50 was below 1000 nM.

Turning to `COc1ncc(-c2csc(Nc3ccc(OCC4CCCCC4)c(F)c3)n2)cn1` [compound 720, N-(4-(cyclohexylmethoxy)-3-fluorophenyl)-4-(2-methoxypyrimidin-5-yl)thiazol-2-amine], the EC50 was below 1000 nM.

Take `Cc1cc(C)cc(Nc2nc(-c3cccnc3)cs2)c1` [compound 906, N-(3,5-dimethylphenyl)-4-(pyridin-3-yl)thiazol-2-amine]: the EC50 fell in the range of 1000 to 10000 nM.
